From patent US10561739B2, “Targeted pyrrolobenzodiazapine conjugates” (priority 2010, dated 2020)

How the values were obtained:
Assay type in all cases: cell-based
HEL cells = assay: Free drug 48 hour Cell Titer Glo cytotoxicity, HEL; conditions: Homo sapiens, Table 3, 48 hours, read-out: IC50 Summary for Free Drugs, HEL
Description: (§1) Referring to the following Table 3, the activities of compounds 23, 25, are compared to that of compound 11 on 786-O, Caki-1, MCF-7, HL-60, THP-1, HEL, and TF1 cells. Cells were plated in 150 μL growth media per well into black-sided clear-bottom 96-well plates (Costar, Corning) and allowed to settle for 1 hour in the biological cabinet before placing in the incubator at 37° C., 5% CO2. The following day, 4× concentration of drug stocks were prepared, and then titrated as 10-fold serial dilutions producing 8-point dose curves and added at 50 μl per well in duplicate. Cells were then incubated for 48 hours at 37° C., 5% CO2. Cytotoxicity was measure by incubating with 100 μL Cell Titer Glo (Promega) solution for 1 hour, and then luminescence was measured on a Fusion HT plate reader (Perkin Elmer). Data was processed with Excel (Microsoft) and GraphPad (Prism) to produce dose response curves and IC50 values were generated and data collected.

Caki-1 cells = assay: Free drug 48 hour Cell Titer Glo cytotoxicity, Caki-1; conditions: Homo sapiens, Table 3, 48 hours, read-out: IC50 Summary for Free Drugs, Caki-1
Description: as §1

TF1a cells = assay: Free drug 48 hour Cell Titer Glo cytotoxicity, TF1a; conditions: TF-1a, Table 3, 48 hours, read-out: IC50 Summary for Free Drugs, TF1a
Description: as §1

MCF-7 cells [1] = assay: Free drug 48 hour Cell Titer Glo cytotoxicity, MCF-7; conditions: Homo sapiens, MCF7, Table 3, 48 hours, read-out: IC50 Summary for Free Drugs, MCF-7
Description: as §1

HL-60 cells = assay: Free drug 48 hour Cell Titer Glo cytotoxicity, HL-60; conditions: Homo sapiens, Table 3, 48 hours, read-out: IC50 Summary for Free Drugs, HL-60
Description: as §1

THP-1 cells = assay: Free drug 48 hour Cell Titer Glo cytotoxicity, THP-1; conditions: Homo sapiens, Table 3, 48 hours, read-out: IC50 Summary for Free Drugs, THP-1
Description: as §1

786-O cells = assay: Free drug 48 hour Cell Titer Glo cytotoxicity, 786-O; conditions: Homo sapiens, 786-0, Table 3, 48 hours, read-out: IC50 Summary for Free Drugs, 786-O
Description: as §1

MCF-7 cells [2] = assay: Free drug cytotoxicity assay, MCF-7 (Table 2); conditions: Homo sapiens
Description: (§2) For a 96-hour assay, cells cultured in log-phase growth were seeded for 24 h in 96-well plates containing 150 μL RPMI 1640 supplemented with 20% FBS. Serial dilutions of test article (i.e., free drug) in cell culture media were prepared at 4× working concentration; 50 μL of each dilution was added to the 96-well plates. Following addition of test article, the cells were incubated with test articles for 4 days at 37° C. Resazurin was then added to each well to achieve a 50 μM final concentration, and the plates were incubated for an additional 4 h at 37° C. The plates were then read for the extent of dye reduction on a Fusion HT plate reader (Packard Instruments, Meridien, Conn., USA) with excitation and emission wavelengths of 530 and 590 nm, respectively. The IC50 value, determined in triplicate, is defined here as the concentration that results in a 50% reduction in cell growth relative to untreated controls.
Referring to the following Table 2, the activity of compounds 28, 30 and 32 is shown on L428, 786-O, HEL, HL-60 and MCF-7 cells, as well as the activity for compound 19 on MCF-7 cells.

[3] = tested on: L428 Hodgkin lymphoma cell line (CD70+/30+); assay: ADC 96-hour resazurin cytotoxicity assay, L428
Description: (§3) The in vitro cytotoxic activity of the selected antibody drug conjugates was assessed using a resazurin (Sigma, St. Louis, Mo., USA) reduction assay (reference: Doronina et al., Nature Biotechnology, 2003, 21, 778-784). The antibody drug conjugates were prepared as described above in Example 13.
as §2, with “For the” for “For a”, “of ADC” for “of test article (i.e., free drug)”, “of ADC,” for “of test article,”

[4] = tested on: 786-O renal cell carcinoma cell line (CD70+); assay: ADC 96-hour resazurin cytotoxicity assay, 786-O
Description: as §3
as §2, with “For the” for “For a”, “of ADC” for “of test article (i.e., free drug)”, “of ADC,” for “of test article,”

control (AML cell line) = assay: ADC 96-hour resazurin cytotoxicity assay, control line of Table 7
Description: as §3
as §2, with “For the” for “For a”, “of ADC” for “of test article (i.e., free drug)”, “of ADC,” for “of test article,”
Referring to Table 7, the in vitro cytotoxicity of ADCs containing PBD dimers on CD70^+ cell lines using the 96 hour assay is shown. […]

## COc1ccc(C2=CN3C(=O)c4cc(OC)c(OCCCCCOc5cc6c(cc5OC)C(=O)N5C=C(c7ccc(O)cc7)C[C@H]5C=N6)cc4N=C[C@@H]3C2)cc1 [Compound 23, (S)-2-(4-hydroxyphenyl)-7-methoxy-8-(5-((S)-7-methoxy-2-(4-methoxyphenyl)-5-oxo-5,11a-dihydro-1H-pyrrolo[2,1-c][1,4]benzodiazepin-8-yloxy)pentyloxy)-1H-pyrrolo[2,1-c][1,4]benzodiazepine-5(11aH)-one]
HEL cells
  IC50: 0.009 nM
Caki-1 cells
  IC50: 0.02 nM
TF1a cells
  IC50: 0.2 nM
MCF-7 cells [1]
  IC50: 0.7 nM
HL-60 cells
  IC50: 0.005 nM
THP-1 cells
  IC50: 0.4 nM
786-O cells
  IC50: 0.06 nM

## COc1ccc(C2=CN3C(=O)c4cc(OC)c(OCCCCCOc5cc6c(cc5OC)C(=O)N5C=C(c7ccc(C=O)cc7)C[C@H]5C=N6)cc4N=C[C@@H]3C2)cc1 [Compound 25, 4-((S)-7-methoxy-8-(5-((S)-7-methoxy-2-(4-methoxyphenyl)-5-oxo-5,11a-dihydro-1H-pyrrolo[2,1-c][1,4]benzodiazepin-8-yloxy)pentyloxy)-5-oxo-5,11a-dihydro-1H-pyrrolo[2,1-c][1,4]benzodiazepine-2-yl)benzaldehyde]
HEL cells
  IC50: 0.02 nM
Caki-1 cells
  IC50: 0.06 nM
TF1a cells
  IC50: 0.9 nM
MCF-7 cells [1]
  IC50: 0.8 nM
HL-60 cells
  IC50: 0.01 nM
THP-1 cells
  IC50: 0.9 nM
786-O cells
  IC50: 0.09 nM

## COc1cc2c(cc1OCCCCCOc1cc3c(cc1OC)C(=O)N1C=C(c4cccc(N)c4)C[C@H]1C=N3)N=C[C@@H]1CC(c3ccc(N4CCN(C)CC4)cc3)=CN1C2=O [Compound 30, (S)-2-(3-aminophenyl)-7-methoxy-8-(5-((S)-7-methoxy-2-(4-(4-methylpiperazin-1-yl)phenyl)-5-oxo-5,11a-dihydro-H-pyrrolo[2,1-c][1,4]benzodiazepin-8-yloxy)pentyloxy)-1H-pyrrolo[2,1-c][1,4]benzodiazepine-5(11aH)-one]
MCF-7 cells [2]; MCF7, Table 2, read-out: IC50 Summary for Free Drugs, MCF-7
  IC50: 0.01 nM

## COc1ccc(C2=CN3C(=O)c4cc(OC)c(OCCCOc5cc6c(cc5OC)C(=O)N5C=C(c7ccc(CN)cc7)C[C@H]5C=N6)cc4N=C[C@@H]3C2)cc1 [Compound 32, (S)-2-(4-(aminomethyl)phenyl)-7-methoxy-8-(3-((S)-7-methoxy-2-(4-methoxyphenyl)-5-oxo-5,11a-dihydro-1H-pyrrolo[2,1-c][1,4]benzodiazepine-8-yloxy)propyloxy)-1H-pyrrolo[2,1-c][1,4]benzodiazepine-5(11aH)-one]
MCF-7 cells [2]; MCF7, read-out: IC50 Summary for Free Drugs, MCF-7
  IC50: 1 nM

B1: h1F6-44 (3.5 dr/mAb) (conjugate, chains of the INN, looked up)
VH: QVQLVQSGAEVKKPGASVKVSCKASGYTFTNYGMNWVRQAPGQGLKWMGWINTYTGEPTYADAFKGRVTMTRDTSISTAYMELSRLRSDDTAVYYCARDYGDYGMDYWGQGTTVTVSS
VL: DIVMTQSPDSLAVSLGERATINCRASKSVSTSGYSFMHWYQQKPGQPPKLLIYLASNLESGVPDRFSGSGSGTDFTLTISSLQAEDVAVYYCQHSREVPWTFGQGTKVEIK
modifications: drug-linker 44 conjugate, 3.5 drugs/mAb
[3]
  In vitro cytotoxic activity (IC50), L428: 2.142 µg/mL
[4]
  In vitro cytotoxic activity (IC50), 786-O: 1.124 µg/mL

B2: h1F6- 43(4 dr/rnAb) (conjugate, chains of the INN, looked up)
VH: B1 VH
VL: B1 VL
modifications: drug-linker 43, 4 drugs/mAb
[3]
  In vitro cytotoxic activity (IC50), L428: 0.404 µg/mL
Control (AML cell line)
  In vitro cytotoxic activity (IC50), control: 1.205 µg/mL
[4]
  In vitro cytotoxic activity (IC50), 786O: 0.011 µg/mL

B3: h1F6 54 (4 dr/rnAb) (conjugate, chains of the INN, looked up)
VH: B1 VH
VL: B1 VL
modifications: drug-linker 54, 4 drugs/mAb
[3]
  In vitro cytotoxic activity (IC50), L428: No effect
Control (AML cell line)
  In vitro cytotoxic activity (IC50), control: No effect
[4]
  In vitro cytotoxic activity (IC50), 786O: No effect
